# Experimental data from patent publication US20080207522A1, “Antimicrobial Peptides” (priority 2004, published 2008).
# What was measured:
# [1] = system: Pseudomonas aeruginosa strain H1001; assay: Assay for the cleaved (free, soluble) peptides from cellulose support, luminescence killing assay; format: cell-based; set-up: key: 1: Peptides showing stronger killing than Bac2A at a 4 to 8-fold higher dilution; Peptides showing stronger killing compared to that of Bac2A at a 4-fold higher dilution; 3: Peptides similar to Bac2A; 4: Peptides similar to Bac2A at the highest concentration but demonstrating weaker killing at a 2-fold dilution; 5: Peptides giving very weak or no killing at a 2-fold dilution; 6: Peptides with weak killing activity at the highest concentration; conditions: free (cleaved) peptides, killing relative to Bac2A
# How it was run: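 Cellulose-synthesized peptides (amidated C-terminus, two β-alanines) cleaved by ammonia, released from punched spots 30 min at 37 °C, then serially diluted. P. aeruginosa H1001 (constitutive fliC::luxCDABE) overnight culture diluted 1:500 in LB or 100 mM Tris pH 7.3/20 mM glucose. Killing followed as time-dependent luminescence loss at 37 °C.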
# [2] = system: Pseudomonas aeruginosa strain H1001 fliC::luxCDABE; assay: Luminescence-based assay for the non-cleaved (bound) peptides on cellulose membranes; format: cell-based; conditions: for Luminescence at the given time in minutes: 0 / Luminescence at the given time in minutes: 20 / Luminescence at the given time in minutes: 40 / Luminescence at the given time in minutes: 60 / Luminescence at the given time in minutes: 80 / Luminescence at the given time in minutes: 100 / Luminescence at the given time in minutes: 120 / Luminescence at the given time in minutes: 180 / Luminescence at the given time in minutes: 240: cellulose-bound peptide; for Luminescence at the given time in minutes: 0: 0 min; for Luminescence at the given time in minutes: 20: 20 min; for Luminescence at the given time in minutes: 40: 40 min; for Luminescence at the given time in minutes: 60: 60 min; for Luminescence at the given time in minutes: 80: 80 min; for Luminescence at the given time in minutes: 100: 100 min; for Luminescence at the given time in minutes: 120: 120 min; for Luminescence at the given time in minutes: 180: 180 min; for Luminescence at the given time in minutes: 240: 240 min; for Activity Class bound: uncleaved cellulose-bound peptides
# How it was run: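 Peptides remained bound to cellulose spots, which were ethanol-washed and equilibrated in 100 mM Tris pH 7.3. Constitutively lux-expressing P. aeruginosa (OD600 0.35 culture diluted 1:25) added in 10 mM Tris-HCl pH 7.3, 20 mM glucose at 37° C. Luminescence (RLU) followed over 14 time points; peptides binned into six activity classes.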
sequence,measurement,setting,value
RARIVRVRVILA [Bac016],Activity Class Soluble,[1],2
same,Luminescence at the given time in minutes: 0,[2],4172 RLU
same,Luminescence at the given time in minutes: 20,[2],6362 RLU
same,Luminescence at the given time in minutes: 40,[2],2916 RLU
same,Luminescence at the given time in minutes: 60,[2],678 RLU
same,Luminescence at the given time in minutes: 80,[2],142 RLU
same,Luminescence at the given time in minutes: 100,[2],80 RLU
same,Luminescence at the given time in minutes: 120,[2],60 RLU
same,Luminescence at the given time in minutes: 180,[2],68 RLU
same,Luminescence at the given time in minutes: 240,[2],22 RLU
same,Activity Class bound,[2],3 (Peptides similar to Bac2A resulting in lux values of less than 500 after 240 min.)
RARRVRVLIAIV [Bac036],Activity Class Soluble,[1],4
same,Luminescence at the given time in minutes: 0,[2],5208 RLU
same,Luminescence at the given time in minutes: 20,[2],7062 RLU
same,Luminescence at the given time in minutes: 40,[2],5114 RLU
same,Luminescence at the given time in minutes: 60,[2],3233 RLU
same,Luminescence at the given time in minutes: 80,[2],1182 RLU
same,Luminescence at the given time in minutes: 100,[2],394 RLU
same,Luminescence at the given time in minutes: 120,[2],215 RLU
same,Luminescence at the given time in minutes: 180,[2],129 RLU
same,Luminescence at the given time in minutes: 240,[2],107 RLU
same,Activity Class bound,[2],3 (Peptides similar to Bac2A resulting in lux values of less than 500 after 240 min.)
RIVLRRAAVIRV [Bac039],Activity Class Soluble,[1],5
same,Luminescence at the given time in minutes: 0,[2],4727 RLU
same,Luminescence at the given time in minutes: 20,[2],7074 RLU
same,Luminescence at the given time in minutes: 40,[2],5814 RLU
same,Luminescence at the given time in minutes: 60,[2],5262 RLU
same,Luminescence at the given time in minutes: 80,[2],4994 RLU
same,Luminescence at the given time in minutes: 100,[2],4717 RLU
same,Luminescence at the given time in minutes: 120,[2],4569 RLU
same,Luminescence at the given time in minutes: 180,[2],4524 RLU
same,Luminescence at the given time in minutes: 240,[2],5392 RLU
same,Activity Class bound,[2],6 (Peptides having residual luminescence (lux) values greater than 3000 after 240 min.)
RLRVAIVAIVRR [Bac041],Activity Class Soluble,[1],4
same,Luminescence at the given time in minutes: 0,[2],4620 RLU
same,Luminescence at the given time in minutes: 20,[2],5674 RLU
same,Luminescence at the given time in minutes: 40,[2],615 RLU
same,Luminescence at the given time in minutes: 60,[2],54 RLU
same,Luminescence at the given time in minutes: 80,[2],68 RLU
same,Luminescence at the given time in minutes: 100,[2],37 RLU
same,Luminescence at the given time in minutes: 120,[2],77 RLU
same,Luminescence at the given time in minutes: 180,[2],53 RLU
same,Luminescence at the given time in minutes: 240,[2],37 RLU
same,Activity Class bound,[2],2 (Peptides reducing lux values to between 500 and 1000 after 40 min.)
RRIARVIVAVLR [Bac002],Activity Class Soluble,[1],3
same,Luminescence at the given time in minutes: 0,[2],4340 RLU
same,Luminescence at the given time in minutes: 20,[2],6090 RLU
same,Luminescence at the given time in minutes: 40,[2],1631 RLU
same,Luminescence at the given time in minutes: 60,[2],135 RLU
same,Luminescence at the given time in minutes: 80,[2],58 RLU
same,Luminescence at the given time in minutes: 100,[2],48 RLU
same,Luminescence at the given time in minutes: 120,[2],35 RLU
same,Luminescence at the given time in minutes: 180,[2],59 RLU
same,Luminescence at the given time in minutes: 240,[2],48 RLU
same,Activity Class bound,[2],3 (Peptides similar to Bac2A resulting in lux values of less than 500 after 240 min.)
RRLVAIVAVRRI [Bac007],Activity Class Soluble,[1],4
same,Luminescence at the given time in minutes: 0,[2],3943 RLU
same,Luminescence at the given time in minutes: 20,[2],7157 RLU
same,Luminescence at the given time in minutes: 40,[2],4403 RLU
same,Luminescence at the given time in minutes: 60,[2],2010 RLU
same,Luminescence at the given time in minutes: 80,[2],679 RLU
same,Luminescence at the given time in minutes: 100,[2],205 RLU
same,Luminescence at the given time in minutes: 120,[2],90 RLU
same,Luminescence at the given time in minutes: 180,[2],89 RLU
same,Luminescence at the given time in minutes: 240,[2],79 RLU
same,Activity Class bound,[2],3 (Peptides similar to Bac2A resulting in lux values of less than 500 after 240 min.)
RRRVIVAVLARI [Bac046],Activity Class Soluble,[1],3
same,Luminescence at the given time in minutes: 0,[2],4408 RLU
same,Luminescence at the given time in minutes: 20,[2],5904 RLU
same,Luminescence at the given time in minutes: 40,[2],2345 RLU
same,Luminescence at the given time in minutes: 60,[2],233 RLU
same,Luminescence at the given time in minutes: 80,[2],76 RLU
same,Luminescence at the given time in minutes: 100,[2],70 RLU
same,Luminescence at the given time in minutes: 120,[2],102 RLU
same,Luminescence at the given time in minutes: 180,[2],48 RLU
same,Luminescence at the given time in minutes: 240,[2],53 RLU
same,Activity Class bound,[2],3 (Peptides similar to Bac2A resulting in lux values of less than 500 after 240 min.)
RRVAIVVIARLR [Bac018],Activity Class Soluble,[1],2
same,Luminescence at the given time in minutes: 0,[2],4966 RLU
same,Luminescence at the given time in minutes: 20,[2],6080 RLU
same,Luminescence at the given time in minutes: 40,[2],981 RLU
same,Luminescence at the given time in minutes: 60,[2],82 RLU
same,Luminescence at the given time in minutes: 80,[2],44 RLU
same,Luminescence at the given time in minutes: 100,[2],60 RLU
same,Luminescence at the given time in minutes: 120,[2],62 RLU
same,Luminescence at the given time in minutes: 180,[2],50 RLU
same,Luminescence at the given time in minutes: 240,[2],39 RLU
same,Activity Class bound,[2],2 (Peptides reducing lux values to between 500 and 1000 after 40 min.)
RRVIAIAVRRLV [Bac050],Activity Class Soluble,[1],3
same,Luminescence at the given time in minutes: 0,[2],4803 RLU
same,Luminescence at the given time in minutes: 20,[2],6715 RLU
same,Luminescence at the given time in minutes: 40,[2],5157 RLU
same,Luminescence at the given time in minutes: 60,[2],4430 RLU
same,Luminescence at the given time in minutes: 80,[2],3915 RLU
same,Luminescence at the given time in minutes: 100,[2],3428 RLU
same,Luminescence at the given time in minutes: 120,[2],3246 RLU
same,Luminescence at the given time in minutes: 180,[2],3206 RLU
same,Luminescence at the given time in minutes: 240,[2],3590 RLU
same,Activity Class bound,[2],6 (Peptides having residual luminescence (lux) values greater than 3000 after 240 min.)
RVLIAARVIRRV [Bac047],Activity Class Soluble,[1],3
same,Luminescence at the given time in minutes: 0,[2],4733 RLU
same,Luminescence at the given time in minutes: 20,[2],6747 RLU
same,Luminescence at the given time in minutes: 40,[2],5100 RLU
same,Luminescence at the given time in minutes: 60,[2],4770 RLU
same,Luminescence at the given time in minutes: 80,[2],4031 RLU
same,Luminescence at the given time in minutes: 100,[2],3383 RLU
same,Luminescence at the given time in minutes: 120,[2],3012 RLU
same,Luminescence at the given time in minutes: 180,[2],2829 RLU
same,Luminescence at the given time in minutes: 240,[2],2615 RLU
same,Activity Class bound,[2],5 (Peptides reducing luminescence (lux) values to between 1500 to 3000 after 240 min.)
